Experimental data taken from ChEMBL document CHEMBL1136150, “Hypocholesterolemic activity of hesperetin derivatives” (2003).

How the values were obtained:
Assay type in all cases: functional
Mus musculus [1] = organism: Mus musculus; assay: Body weight of the high cholesterol-fed mice after 0 day
Mus musculus [2] = organism: Mus musculus; assay: Body weight of the high cholesterol-fed mice after 10 day
Mus musculus [3] = organism: Mus musculus; assay: Effect on plasma total cholesterol in high cholesterol-fed mice after 0 day
Mus musculus [4] = organism: Mus musculus; assay: Effect on plasma total cholesterol in high cholesterol-fed mice after 10 day

Row | SMILES | Body weight (Mus musculus [1]) [g] | Body weight (Mus musculus [2]) [g] | Total cholesterol (Mus musculus [3]) [mg/dL] | Total cholesterol (Mus musculus [4]) [mg/dL]
1 | COc1ccc(C2CC(=O)c3c(O)cc(OC(C)=O)cc3O2)cc1O (configuration not stated) | 23.4 | 23.7 | 96 | 220
2 | COc1ccc([C@@H]2CC(=O)c3c(O)cc(O)cc3O2)cc1O [HESPERETIN] | 25.4 | 25.6 | 103 | 216
3 | CCCCCCCCCCCCCCCCCCOc1cc(O)c2c(c1)OC(c1ccc(OC)c(O)c1)CC2=O (configuration not stated) | 23.1 | 24.4 | 101 | 208
4 | CCCCCCCCCCCCCCCC(=O)Oc1cc(O)c2c(c1)OC(c1ccc(OC)c(O)c1)CC2=O (configuration not stated) | 21.7 | 23.4 | 97 | 209
5 | CCCCCCCCCCCCOc1cc(O)c2c(c1)OC(c1ccc(OC)c(O)c1)CC2=O (configuration not stated) | 22 | 22.4 | 95 | 189
6 | CCCCCCCCCCCC(=O)Oc1cc(O)c2c(c1)OC(c1ccc(OC)c(O)c1)CC2=O (configuration not stated) | 22.4 | 22.4 | 95 | 192
7 | CCCCCCCC/C=C\CCCCCCCC(=O)Oc1cc(O)c2c(c1)OC(c1ccc(OC)c(O)c1)CC2=O (configuration not stated) | 22.3 | 23.8 |  | 
8 | CCCCCCCCCCCCCCCCOc1cc(O)c2c(c1)OC(c1ccc(OC)c(O)c1)CC2=O (configuration not stated) | 22.5 | 23 | 93 | 202
9 | CCCCCCCC/C=C\CCCCCCCCOc1cc(O)c2c(c1)OC(c1ccc(OC)c(O)c1)CC2=O (configuration not stated) | 23.4 | 23.7 | 96 | 192
10 | CCOc1cc(O)c2c(c1)OC(c1ccc(OC)c(O)c1)CC2=O (configuration not stated) | 21.9 | 22.5 | 102 | 218
11 | CCCCCCCCCCCCCCCCCC(=O)Oc1cc(O)c2c(c1)OC(c1ccc(OC)c(O)c1)CC2=O (configuration not stated) | 22.3 | 23.7 | 95 | 214
